Assay results taken from the NIST ThermoML archive (doi:10.1016/j.fluid.2010.05.018).
Numbers after ± are expanded uncertainties.

Details: 298.15 K; 101.33 kPa; Liquid; Vibrating tube method

Row | SMILES | mass density [kg/m3]
1 | FC(F)(F)C(F)(F)C(F)(F)C(F)(F)C(F)(F)C(F)(F)C(F)(F)C(F)(F)F [octadecafluorooctane] | 1754.28 ± 0.44
2 | FC(F)(F)C(F)(F)C(F)(F)C(F)(F)C(F)(F)C(F)(F)F [perfluorohexane] | 1670.07 ± 0.32
